target: PARP7 (Homo sapiens (Human), UniProt Q7Z3E1); assay: In vitro enzymology experiment of PARP7 (enzymatic inhibition); assay type: biochemical
Protocol: II. In Vitro Enzymology Experiment of PARP2, 3, 5A, 5B, 7, 12, and 15
1. Preparation of 384-well histone-coated plate: 25 μL of histone solution was added to each well, and the plate was incubated overnight at 4° C.
2. Preparation of PBST buffer, blocking buffer, and assay buffer
3. The 384-well histone-coated plate was washed three times with PBST buffer. The plate was blocked by 50 μL of blocking buffer for 1 hour at room temperature. The plate was then washed three times with PBST buffer.
2000× compound was prepared in a 96-well source plate. 50 nL of the compound was transferred from the source plate to a 96-well intermediate plate, and 39.95 μL of assay buffer was added to each well. The plate was shaken well and centrifuged at 1000 rpm for 1 minute.
5 μL of compound DMSO solution was transferred to each well.
An enzyme mixture was incubated at 25° C. for 10 minutes.
10 μL of the enzyme mixture was added, and incubated with the compound at room temperature for 10 minutes.
10 μL of assay buffer was added to the negative control well of the assay plate.
The plate was then washed three times with PBST buffer.
25 μL of Stre-HRP was added.
The plate was incubated at room temperature for 1 hour and washed three times with PBS buffer.
25 μL of QuantaRed Enhancer mix was added. The plate was incubated for 10 minutes.
2.5 μL of QuantaRed Stop Solution was added to terminate the peroxidase reaction, and the plate was shaken for 10 to 30 seconds.
7. Paradigm was used to read the plate immediately to detect the readings at Ex550/Em620.
Using equation (1) to fit the data in Excel to obtain inhibition values
Using equation (2) to fit the data in XL-Fit to obtain IC50 values
Y is the percentage of inhibition, and X is the compound concentration.

Sequence of PARP7 (Q7Z3E1 whole entry): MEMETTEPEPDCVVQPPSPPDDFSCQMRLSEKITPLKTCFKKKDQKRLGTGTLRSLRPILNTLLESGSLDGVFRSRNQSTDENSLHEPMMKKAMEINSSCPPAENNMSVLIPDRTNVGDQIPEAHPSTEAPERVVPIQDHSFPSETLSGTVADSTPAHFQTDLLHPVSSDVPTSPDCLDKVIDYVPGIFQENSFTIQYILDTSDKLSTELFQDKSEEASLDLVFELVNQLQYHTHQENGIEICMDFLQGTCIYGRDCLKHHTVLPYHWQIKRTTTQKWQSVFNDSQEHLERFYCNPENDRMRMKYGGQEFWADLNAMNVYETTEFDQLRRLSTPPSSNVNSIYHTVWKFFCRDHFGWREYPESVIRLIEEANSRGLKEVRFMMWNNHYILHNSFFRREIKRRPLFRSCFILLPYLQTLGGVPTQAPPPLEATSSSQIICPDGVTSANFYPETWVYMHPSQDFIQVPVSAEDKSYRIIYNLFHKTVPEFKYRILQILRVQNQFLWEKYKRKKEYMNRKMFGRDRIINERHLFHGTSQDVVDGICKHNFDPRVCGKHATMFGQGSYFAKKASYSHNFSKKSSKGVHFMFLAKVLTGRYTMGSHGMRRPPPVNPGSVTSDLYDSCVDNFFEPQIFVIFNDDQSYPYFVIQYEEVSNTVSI

SMILES	IC50
O=C(O[C@@H]1CCC[C@H]1c1c[nH]c(=O)c(C(F)(F)F)c1)N1CCN(c2ncc(C(F)(F)F)cn2)CC1 (single isomer, unassigned) [Example 70]	0.91 nM
COC[C@@H]1CN(c2ncc(C(F)(F)F)cn2)CCN1C(=O)OCCc1c[nH]c(=O)c(C(F)(F)F)c1 (stereo in doubt) [Example 129, 2-(6-Oxo-5-(trifluoromethyl)-1,6-dihydropyridin-3-yl)ethyl 2-(methoxymethyl)-4-(5-(trifluoromethyl)pyrimidin-2-yl)piperazine-1-carboxylate]	0.39 nM
O=C(Cc1cc(C(F)(F)F)c(=O)[nH]n1)NCC(=O)N1CCN(c2ncc(C(F)(F)F)cn2)CC1 [Example 5, N-(2-Oxo-2-(4-(5-(trifluoromethyl)pyrimidin-2-yl)piperazin-1-yl)ethyl)-2-(6-oxo-5-(trifluoromethyl)-1,6-dihydropyridazin-3-yl)acetamide]	5.83 nM
O=C(COC[C@@H]1CCCN1c1c[nH]c(=O)c(C(F)(F)F)c1)N1CCN(c2ncc(C(F)(F)F)cn2)CC1 [Example 7, (S)-5-(2-((2-Oxo-2-(4-(5-(trifluoromethyl)pyrimidin-2-yl)piperazin-1-yl)ethoxy)methyl)pyrrolidin-1-yl)-3-(trifluoromethyl)pyridin-2(1H)-one]	2.79 nM
O=C(CCOC[C@@H]1CCCN1c1c[nH]c(=O)c(C(F)(F)F)c1)N1CCN(c2ncc(C(F)(F)F)cn2)CC1 [Example 9, (S)-5-(2-((3-Oxo-3-(4-(5-(trifluoromethyl)pyrimidin-2-yl)piperazin-1-yl)propoxy)methyl)pyrrolidin-1-yl)-3-(trifluoromethyl)pyridin-2(1H)-one]	7.6 nM
O=C(CCOC[C@H]1CCCN1c1c[nH]c(=O)c(C(F)(F)F)c1)N1CCN(c2ncc(C(F)(F)F)cn2)CC1 [Example 10, (R)-5-(2-((3-Oxo-3-(4-(5-(trifluoromethyl)pyrimidin-2-yl)piperazin-1-yl)propoxy)methyl)pyrrolidin-1-yl)-3-(trifluoromethyl)pyridin-2(1H)-one]	6.7 nM
O=C(CCOCCN1CCCc2c1cn[nH]c2=O)N1CCN(c2ncc(C(F)(F)F)cn2)CC1 [Example 13, 1-(2-(3-Oxo-3-(4-(5-(trifluoromethyl)pyrimidin-2-yl)piperazin-1-yl)propoxy)ethyl)-2,3,4,6-tetrahydropyrido[2,3-d]pyridazin-5(1H)-one]	5.98 nM
O=C(CCOc1c[nH]c(=O)c(C(F)(F)F)c1)N1CCN(c2ncc(C(F)(F)F)cn2)CC1 [Example 17, 5-(3-Oxo-3-(4-(5-(trifluoromethyl)pyrimidin-2-yl)piperazin-1-yl)propoxy)-3-(trifluoromethyl)pyridin-2(1H)-one]	2.79 nM
O=C(CCOCCn1c(=O)ccc2c(=O)[nH]ncc21)N1CCN(c2ncc(C(F)(F)F)cn2)CC1 [Example 22, 1-(2-(3-Oxo-3-(4-(5-(trifluoromethyl)pyrimidin-2-yl)piperazin-1-yl)propoxy)ethyl)pyrido[2,3-d]pyridazine-2,5(1H,6H)-dione]	3.6 nM
CC(COC(=O)N1CCN(c2ncc(C(F)(F)F)cn2)CC1)c1c[nH]c(=O)c(C(F)(F)F)c1 (centres unmarked) [Example 25, 2-(6-Oxo-5-(trifluoromethyl)-1,6-dihydropyridin-3-yl)propyl 4-(5-(trifluoromethyl)pyrimidin-2-yl)piperazine-1-carboxylate]	0.8 nM
C[C@H](COC(=O)N1CCN(c2ncc(C(F)(F)F)cn2)CC1)c1c[nH]c(=O)c(C(F)(F)F)c1 [Example 26]	0.6 nM
C[C@@H](COC(=O)N1CCN(c2ncc(C(F)(F)F)cn2)CC1)c1c[nH]c(=O)c(C(F)(F)F)c1 [Example 27]	1.1 nM
O=C(CCc1c[nH]c(=O)c(C(F)(F)F)c1)N1CCN(c2ncc(C(F)(F)F)cn2)CC1 [Example 28, 5-(3-Oxo-3-(4-(5-(trifluoromethyl)pyrimidin-2-yl)piperazin-1-yl)propyl)-3-(trifluoromethyl)pyridin-2(1H)-one]	0.9 nM
O=C(OC[C@@H]1CCCN1c1c[nH]c(=O)c(C(F)(F)F)c1)N1CCN(c2ncc(C(F)(F)F)cn2)CC1 [Example 29, (S)-(1-(6-Oxo-5-(trifluoromethyl)-1,6-dihydropyridin-3-yl)pyrrolidin-2-yl)methyl 4-(5-(trifluoromethyl)pyrimidin-2-yl)piperazine-1-carboxylate]	5.6 nM
O=C(c1cccc(Cc2c[nH]c(=O)c(C(F)(F)F)c2)c1)N1CCN(c2ncc(C(F)(F)F)cn2)CC1 [Example 30, 3-(Trifluoromethyl)-5-(3-(4-(5-(trifluoromethyl)pyrimidin-2-yl)piperazine-1-carbonyl)benzyl)pyridin-2(1H)-one]	0.9 nM
O=C(CCNc1c[nH]c(=O)c(C(F)(F)F)c1)N1CCN(c2ncc(C(F)(F)F)cn2)CC1 [Example 31, 5-((3-Oxo-3-(4-(5-(trifluoromethyl)pyrimidin-2-yl)piperazin-1-yl)propyl)amino)-3-(trifluoromethyl)pyridin-2(1H)-one]	1.19 nM
O=C(NCCc1c[nH]c(=O)c(C(F)(F)F)c1)N1CCN(c2ncc(C(F)(F)F)cn2)CC1 [Example 32, N-(2-(6-Oxo-5-(trifluoromethyl)-1,6-dihydropyridin-3-yl)ethyl)-4-(5-(trifluoromethyl)pyrimidin-2-yl)piperazine-1-carboxamide]	0.44 nM
CC(Cc1c[nH]c(=O)c(C(F)(F)F)c1)OC(=O)N1CCN(c2ncc(C(F)(F)F)cn2)CC1 (centres unmarked) [Example 33, 1-(6-Oxo-5-(trifluoromethyl)-1,6-dihydropyridin-3-yl)propan-2-yl 4-(5-(trifluoromethyl)pyrimidin-2-yl)piperazine-1-carboxylate]	0.9 nM
O=C(OC[C@H]1CCCN1c1c[nH]c(=O)c(C(F)(F)F)c1)N1CCN(c2ncc(C(F)(F)F)cn2)CC1 [Example 36, (R)-(1-(6-Oxo-5-(trifluoromethyl)-1,6-dihydropyridin-3-yl)pyrrolidin-2-yl)methyl 4-(5-(trifluoromethyl)pyrimidin-2-yl)piperazine-1-carboxylate]	0.38 nM
O=C(CCCc1c[nH]c(=O)c(C(F)(F)F)c1)N1CCN(c2ncc(C(F)(F)F)cn2)CC1 [Example 37, 5-(4-Oxo-4-(4-(5-(trifluoromethyl)pyrimidin-2-yl)piperazin-1-yl)butyl)-3-(trifluoromethyl)pyridin-2(1H)-one]	0.9 nM
CC(CC(=O)N1CCN(c2ncc(C(F)(F)F)cn2)CC1)c1c[nH]c(=O)c(C(F)(F)F)c1 (centres unmarked) [Example 38, 5-(4-Oxo-4-(4-(5-(trifluoromethyl)pyrimidin-2-yl)piperazin-1-yl)butan-2-yl)-3-(trifluoromethyl)pyridin-2(1H)-one]	1.1 nM
O=C(CCO[C@H]1CCC[C@@H]1c1c[nH]c(=O)c(C(F)(F)F)c1)N1CCN(c2ncc(C(F)(F)F)cn2)CC1 [Example 39, 5-((1R,2S)-2-(3-Oxo-3-(4-(5-(trifluoromethyl)pyrimidin-2-yl)piperazin-1-yl)propoxy)cyclopentyl)-3-(trifluoromethyl)pyridin-2(1H)-one]	1.5 nM
O=C(c1cc(Cc2c[nH]c(=O)c(C(F)(F)F)c2)ccc1F)N1CCN(c2ncc(C(F)(F)F)cn2)CC1 [Example 40, 5-(4-Fluoro-3-(4-(5-(trifluoromethyl)pyrimidin-2-yl)piperazine-1-carbonyl)benzyl)-3-(trifluoromethyl)pyridin-2(1H)-one]	0.7 nM

Reference: patent US20240351997A1, “NOVEL PARP7 INHIBITOR AND USE THEREOF” (SHANGHAI QILU PHARMACEUTICAL RESEARCH AND DEVELOPMENT …, priority 2021, published 2024)
